From US20130053381A1, “2,4-DIOXO-1,4-DIHYDRO-2H-QUINAZOLIN-3-YL-SULFONAMIDE DERIVATIVES” (NOVARTIS AG, priority 2010, published 2013)

System: OF1 mice
Assay: Maximal electroshock test (MES Test)
Format: in vivo
Details: Mus musculus, po, pre-treatment time −1 h, read-out: %-Protection; for responders at 50 mg/kg: p.o.; for responders at 25 mg/kg: p.o. (footnote b)
Method in brief: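 Readout: fraction of five OF1 mice protected, meaning seizure duration 3 s or less, after a 50 Hz, 18 mA, 0.2 s temporal-electrode shock. Dosing was oral, usually 50 mg/kg, one hour beforehand; ED50 values were derived and post-shock blood taken for exposure.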

SMILES	responders at 50 mg/kg [%]	responders at 25 mg/kg [%]
CCCC(=O)N(n1c(=O)[nH]c2cc(C(F)(F)F)c(-c3ccnn3C(C)C)cc2c1=O)S(C)(=O)=O [Example 5.03, N-Butyryl-N-[6-(2-isopropyl-2H-pyrazol-3-yl)-2,4-dioxo-7-trifluoromethyl-1,4-dihydro-2H-quinazolin-3-yl]-methanesulfonamide]	40	
CCCCCC(=O)N(n1c(=O)[nH]c2cc(C(F)(F)F)c(-c3ccnn3C(C)C)cc2c1=O)S(C)(=O)=O [Example 5.04, N-Hexanoyl-N-[6-(2-isopropyl-2H-pyrazol-3-yl)-2,4-dioxo-7-trifluoromethyl-1,4-dihydro-2H-quinazolin-3-yl]-methanesulfonamide]	20	
CC(C)C(=O)N(n1c(=O)[nH]c2cc(C(F)(F)F)c(-c3ccnn3C(C)C)cc2c1=O)S(C)(=O)=O [Example 5.05, N-Isobutyryl-N-[6-(2-isopropyl-2H-pyrazol-3-yl)-2,4-dioxo-7-trifluoromethyl-1,4-dihydro-2H-quinazolin-3-yl]-methanesulfonamide]	60	
CCOC(=O)N(n1c(=O)[nH]c2cc(C(F)(F)F)c(-c3ccnn3C(C)C)cc2c1=O)S(C)(=O)=O [Example 5.06, [6-(2-Isopropyl-2H-pyrazol-3-yl)-2,4-dioxo-7-trifluoromethyl-1,4-dihydro-2H-quinazolin-3-yl]-methanesulfonyl-carbamic acid ethyl ester]	60	
CCCOC(=O)N(n1c(=O)[nH]c2cc(C(F)(F)F)c(-c3ccnn3C(C)C)cc2c1=O)S(C)(=O)=O [Example 5.07, [6-(2-Isopropyl-2H-pyrazol-3-yl)-2,4-dioxo-7-trifluoromethyl-1,4-dihydro-2H-quinazolin-3-yl]-methanesulfonyl-carbamic acid propyl ester]	40	
CCCCOC(=O)N(n1c(=O)[nH]c2cc(C(F)(F)F)c(-c3ccnn3C(C)C)cc2c1=O)S(C)(=O)=O [Example 5.08, [6-(2-Isopropyl-2H-pyrazol-3-yl)-2,4-dioxo-7-trifluoromethyl-1,4-dihydro-2H-quinazolin-3-yl]-methanesulfonyl-carbamic acid butyl ester]	100	
CC(C)COC(=O)N(n1c(=O)[nH]c2cc(C(F)(F)F)c(-c3ccnn3C(C)C)cc2c1=O)S(C)(=O)=O [Example 5.09, [6-(2-Isopropyl-2H-pyrazol-3-yl)-2,4-dioxo-7-trifluoromethyl-1,4-dihydro-2H-quinazolin-3-yl]-methanesulfonyl-carbamic acid isobutyl ester]	40	
COCCOC(=O)N(n1c(=O)[nH]c2cc(C(F)(F)F)c(-c3ccnn3C(C)C)cc2c1=O)S(C)(=O)=O [Example 5.10, [6-(2-Isopropyl-2H-pyrazol-3-yl)-2,4-dioxo-7-trifluoromethyl-1,4-dihydro-2H-quinazolin-3-yl]-methanesulfonyl-carbamic acid 2-methoxy-ethyl ester]	20	
CCOC(=O)CCCC(=O)N(n1c(=O)[nH]c2cc(C(F)(F)F)c(-c3ccnn3C(C)C)cc2c1=O)S(C)(=O)=O [Example 5.11, 5-{[6-(2-Isopropyl-2H-pyrazol-3-yl)-2,4-dioxo-7-trifluoromethyl-1,4-dihydro-2H-quinazolin-3-yl]-methanesulfonyl-amino}-5-oxo-pentanoic acid ethyl ester]	40	
CCOC(=O)CC(=O)N(n1c(=O)[nH]c2cc(C(F)(F)F)c(-c3ccnn3C(C)C)cc2c1=O)S(C)(=O)=O [Example 5.12, 3-{[6-(2-Isopropyl-2H-pyrazol-3-yl)-2,4-dioxo-7-trifluoromethyl-1,4-dihydro-2H-quinazolin-3-yl]-methanesulfonyl-amino}-3-oxo-propionic acid ethyl ester]	40	
CSCCC(=O)N(n1c(=O)[nH]c2cc(C(F)(F)F)c(-c3ccnn3C(C)C)cc2c1=O)S(C)(=O)=O [Example 5.13, N-[6-(2-Isopropyl-2H-pyrazol-3-yl)-2,4-dioxo-7-trifluoromethyl-1,4-dihydro-2H-quinazolin-3-yl]-N-(3-methylsulfanyl-propionyl)-methanesulfonamide]	40	
CC(=O)N(n1c(=O)[nH]c2cc(C(F)F)c(-c3ccnn3C(C)C)cc2c1=O)S(C)(=O)=O [Example 6.01, N-Acetyl-N-[7-difluoromethyl-6-(2-isopropyl-2H-pyrazol-3-yl)-2,4-dioxo-1,4-dihydro-2H-quinazolin-3-yl]-methanesulfonamide]	40	20
CCCC(=O)N(n1c(=O)[nH]c2cc(C(F)F)c(-c3ccnn3C(C)C)cc2c1=O)S(C)(=O)=O [Example 6.02, N-Butyryl-N-[7-difluoromethyl-6-(2-isopropyl-2H-pyrazol-3-yl)-2,4-dioxo-1,4-dihydro-2H-quinazolin-3-yl]-methanesulfonamide]	40	0
CCCCC(=O)N(n1c(=O)[nH]c2cc(C(F)F)c(-c3ccnn3C(C)C)cc2c1=O)S(C)(=O)=O [Example 6.03, N-[7-Difluoromethyl-6-(2-isopropyl-2H-pyrazol-3-yl)-2,4-dioxo-1,4-dihydro-2H-quinazolin-3-yl]-N-pentanoyl-methanesulfonamide]	40	0
CCCOC(=O)N(n1c(=O)[nH]c2cc(C(F)F)c(-c3ccnn3C(C)C)cc2c1=O)S(C)(=O)=O [Example 6.04, [7-Difluoromethyl-6-(2-isopropyl-2H-pyrazol-3-yl)-2,4-dioxo-1,4-dihydro-2H-quinazolin-3-yl]-methanesulfonyl-carbamic acid propyl ester]	20	0
CCC(=O)N(n1c(=O)[nH]c2cc(C(F)F)c(-c3ccnn3C(C)C)cc2c1=O)S(C)(=O)=O [Example 6.05, N-[7-Difluoromethyl-6-(2-isopropyl-2H-pyrazol-3-yl)-2,4-dioxo-1,4-dihydro-2H-quinazolin-3-yl]-N-propionyl-methanesulfonamide]	80	60
CCOC(=O)N(n1c(=O)[nH]c2cc(C(F)F)c(-c3ccnn3C(C)C)cc2c1=O)S(C)(=O)=O [Example 6.06, [7-Difluoromethyl-6-(2-isopropyl-2H-pyrazol-3-yl)-2,4-dioxo-1,4-dihydro-2H-quinazolin-3-yl]-methanesulfonyl-carbamic acid ethyl ester]	60	20
COCCOC(=O)N(n1c(=O)[nH]c2cc(C(F)F)c(-c3ccnn3C(C)C)cc2c1=O)S(C)(=O)=O [Example 6.07, [7-Difluoromethyl-6-(2-isopropyl-2H-pyrazol-3-yl)-2,4-dioxo-1,4-dihydro-2H-quinazolin-3-yl]-methanesulfonyl-carbamic acid 2-methoxy-ethyl ester]	40	
Cc1nccn1-c1cc2c(=O)n(NS(C)(=O)=O)c(=O)[nH]c2cc1C(F)(F)F [Example 7.0, N-[6-(2-Methyl-imidazol-1-yl)-2,4-dioxo-7-trifluoromethyl-1,4-dihydro-2H-quinazolin-3-yl]-methanesulfonamide]	0	
CCOC(=O)N(n1c(=O)[nH]c2cc(C(F)(F)F)c(-n3ccnc3C)cc2c1=O)S(C)(=O)=O [Example 7.01, Methanesulfonyl-[6-(2-methyl-imidazol-1-yl)-2,4-dioxo-7-trifluoromethyl-1,4-dihydro-2H-quinazolin-3-yl]-carbamic acid ethyl ester]	40	
CCCC(=O)N(n1c(=O)[nH]c2cc(C(F)(F)F)c(-n3ccnc3C)cc2c1=O)S(C)(=O)=O [Example 7.02, N-Butyryl-N-[6-(2-methyl-imidazol-1-yl)-2,4-dioxo-7-trifluoromethyl-1,4-dihydro-2H-quinazolin-3-yl]-methanesulfonamide]	20	
CCCOC(=O)N(n1c(=O)[nH]c2cc(C(F)(F)F)c(-n3ccnc3C)cc2c1=O)S(C)(=O)=O [Example 7.03, Methanesulfonyl-[6-(2-methyl-imidazol-1-yl)-2,4-dioxo-7-trifluoromethyl-1,4-dihydro-2H-quinazolin-3-yl]-carbamic acid propyl ester]	40	
Cc1nccn1-c1cc2c(=O)n(N(C(=O)OCC(C)C)S(C)(=O)=O)c(=O)[nH]c2cc1C(F)(F)F [Example 7.04, Methanesulfonyl-[6-(2-methyl-imidazol-1-yl)-2,4-dioxo-7-trifluoromethyl-1,4-dihydro-2H-quinazolin-3-yl]-carbamic acid isobutyl ester]	40	
CCC(=O)N(n1c(=O)[nH]c2cc(C(F)(F)F)c(-n3cccc3)cc2c1=O)S(C)(=O)=O [Example 8.01, N-(2,4-Dioxo-6-pyrrol-1-yl-7-trifluoromethyl-1,4-dihydro-2H-quinazolin-3-yl)-N-propionyl-methanesulfonamide]	20	
CCCC(=O)N(n1c(=O)[nH]c2cc(C(F)(F)F)c(-n3cccc3)cc2c1=O)S(C)(=O)=O [Example 8.02, N-Butyryl-N-(2,4-dioxo-6-pyrrol-1-yl-7-trifluoromethyl-1,4-dihydro-2H-quinazolin-3-yl)-methanesulfonamide]	20	
CC(=O)OCC(=O)N(n1c(=O)[nH]c2cc(C(F)(F)F)c(-n3cccc3)cc2c1=O)S(C)(=O)=O [Example 8.03, Acetic acid 2-[(2,4-dioxo-6-pyrrol-1-yl-7-trifluoromethyl-1,4-dihydro-2H-quinazolin-3-yl)-methanesulfonyl-amino]-2-oxo-ethyl ester]	40	
COC(=O)N(n1c(=O)[nH]c2cc(C(F)(F)F)c(-n3cccc3)cc2c1=O)S(C)(=O)=O [Example 8.04, (2,4-Dioxo-6-pyrrol-1-yl-7-trifluoromethyl-1,4-dihydro-2H-quinazolin-3-yl)-methanesulfonyl-carbamic acid methyl ester]	20	
